Source: patent US11472766B2, “Lipid nanoparticle composition” (Suzhou Abogen Biosciences Co., Ltd., priority 2020, dated 2022)

Legend:
[1] = Lipid nanoparticle size by dynamic light scattering (Malvern Zetasizer Nano ZS); assay type: physicochemical; details: LNP: cationic lipid/DSPC/cholesterol/PEG-lipid 50:10:38.5:1.5, hEPO mRNA
How it was run: (§1)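 Ribogreen fluorescence quantifies encapsulated mRNA and backscatter (173°) DLS sizes the particles. These are microfluidically mixed four-component LNPs in DPBS after dialysis.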

[2] = Encapsulation efficiency of lipid nanoparticles (Quant-it Ribogreen RNA quantification assay); assay type: physicochemical; details: LNP encapsulating hEPO mRNA
How it was run: as §1

[3] = system: human erythropoietin (hEPO) mRNA; experiment: Animal study: hEPO expression after tail vein injection of LNPs encapsulating hEPO mRNA (serum ELISA); assay type: in vivo; details: hEPO level, female ICR mice, 0.5 mg/kg, 6 hours post administration; for Expression at 6 h (μg/ml): class symbols, Table 3
How it was run: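 Female ICR mice (6-8 weeks) received LNPs carrying hEPO mRNA by tail vein injection at 0.5 mg/kg, with MC3 LNPs dosed the same way as positive control. Blood was drawn at set times (e.g., 6 h) and serum separated. hEPO was quantified by ELISA and reported as μg/ml.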

[4] = Apparent pKa of LNP formulations (TNS fluorescence assay); details: LNP cationic lipid/DSPC/cholesterol/DMG-PEG 50/10/38.5/1.5 mol %

SMILES | polydispersity ([1]; Table 3) | size nm ([1]; Table 3) | Encapsulation Efficiency ([2]; Table 3) | Apparant Pka ([4]; Table 3) | polydispersity ([1]; Table 2) | size nm ([1]; Table 2) | Encapsulation Efficiency ([2]; Table 2) | Apparant Pka ([4]; Table 2) | Expression at 6 h (μg/ml) [3] | Expression at 6 h ([3]; Table 2)
CCCCCCCCC(CCCCCCCC)CC(=O)NCCCCCN(CCCCCOC(=O)CC(CCCCCCCC)CCCCCCCC)CCN(CCO)C1CCCCCC1 [Compound 145] | 0.04 | 61.5 nm | 93.1% | 6.634 |  |  |  |  | A (≥2) | 
CCCCCCC(CCCCCC)CC(=O)NCCCCCN(CCCCCOC(=O)CC(CCCCCC)CCCCCC)CCN(CCO)C1CCCCCC1 [Compound 142] | 0.027 | 81.13 nm | 85.3% | 6.678 |  |  |  |  | A (≥2) | 
CCCCCCCCC(CCCCCC)C(CC)OC(=O)CCCCCN(CCCCCC(=O)OC(CC)C(CCCCCC)CCCCCCCC)CCN(CCO)C1CCC1 (centres unmarked) [Compound 39] | 0.043 | 64.4 nm | 98.8% | 6.061 |  |  |  |  | C (≥0.1 and <1) | 
CCCCCCCCC(CCCCCCCC)CC(=O)NCCCCCN(CCCCCNC(=O)CC(CCCCCCCC)CCCCCCCC)CCN(CCO)C1CCCCCC1 [Compound 144] | 0.035 | 64.08 nm | 95.0% | 6.794 |  |  |  |  | A (≥2) | 
CCCCC/C=C\CCCC(=O)C(CC/C=C\CCCCC)C(CCC/C=C\CCCCC)OC(=O)CCCCCN(CCO)CCCCCC(=O)OCCC/C=C/CCCCC (centres unmarked) [Compound 100] | 0.208 | 58.6 nm | 87.7% | 6.187 |  |  |  |  | C (≥0.1 and <1) | 
CCCCCCCCOC(CCCCCN(CCCCCC(=O)NCC(CCCCCC)CCCCCC)CCN(CCO)C1CCC1)OCCCCCCCC [Compound 150] | 0.06 | 66.33 nm | 93.5% | 6.918 |  |  |  |  | A (≥2) | 
CCCCCCCCC(CCCCCC)COC(=O)CCCCCC(CCCCCC(=O)OCC(CCCCCC)CCCCCCCC)CN(CC)CCO (centres unmarked) [Compound 16] | 0.225 | 54.69 nm | 98.87% | 4.403 |  |  |  |  | D (<0.1) | 
CCCCCCCCCCCOC(=O)CCCCCN(CCCCCC(=O)NCC(CCCCCCCC)CCCCCCCC)CCN(CCO)C1CCCCCC1 [Compound 149] | 0.07 | 72.85 nm | 86.3% | 6.810 |  |  |  |  | B (≥1 and <2) | 

Second part, led by results:

polydispersity ([1]; Table 3) | size nm ([1]; Table 3) | Encapsulation Efficiency ([2]; Table 3) | Apparant Pka ([4]; Table 3) | polydispersity ([1]; Table 2) | size nm ([1]; Table 2) | Encapsulation Efficiency ([2]; Table 2) | Apparant Pka ([4]; Table 2) | SMILES | Expression at 6 h (μg/ml) [3] | Expression at 6 h ([3]; Table 2)
 |  |  |  | 0.065 | 54.7 nm | 96.9% | 5.84 | CCCCCCCCC(CCCCCC)COC(=O)CCCCCN(CCCCCC(=O)OCC(CCCCCC)CCCCCCCC)CCN(C(=O)CCO)C1CCC1 (centres unmarked) [Compound 8] |  | 0.00 µg/mL
0.091 | 62.2 nm | 94.5% | 5.315 |  |  |  |  | CCCCCCCCC(CCCCCC)COC(=O)CCCCCN(CCCCCC(=O)OCC(CCCCCC)CCCCCCCC)CCN(CC(O)CCCC)C1CCC1 (centres unmarked) [Compound 33] | D (<0.1) | 
0.07 | 85.46 nm | 96.4% | 6.466 |  |  |  |  | CCCCCCCCC(CCCCCC)COC(=O)CCCCCN(CCCCCC(=O)OCC(CCCCCC)CCCCCCCC)CCN(CCC)C1CCC(O)CC1 (centres unmarked) [Compound 56] | A (≥2) | 
0.064 | 80.78 nm | 95.6% | 6.711 |  |  |  |  | CCCCCCCCC(CCCCCC)CC(=O)NCCCCCN(CCCCCOC(=O)CC(CCCCCC)CCCCCCCC)CCN(CCO)C1CCC1 (centres unmarked) [Compound 108] | A (≥2) | 
0.057 | 62.72 nm | 98.9% | 6.523 |  |  |  |  | CCCCCCCCC(CCCCCC)CNC(=O)CCCCCN(CCCCCC(=O)NCC(CCCCCC)CCCCCCCC)CCN(CCO)C1CCC1 (centres unmarked) [Compound 118] | A (≥2) | 
0.076 | 71.64 nm | 92.4% | 5.822 |  |  |  |  | CCCCCCCCC(CCCCCC)COC(=O)CCCCCN(CCCCCC(=O)OCC(CCCCCC)CCCCCCCC)CCN(CCCCCCCCO)C1CCC1 (centres unmarked) [Compound 31] | C (≥0.1 and <1) | 
0.095 | 63.32 nm | 96.1% | 5.29 |  |  |  |  | CCCCCCCCC(O)CN(CCN(CCCCCC(=O)OCC(CCCCCC)CCCCCCCC)CCCCCC(=O)OCC(CCCCCC)CCCCCCCC)C1CCC1 (centres unmarked) [Compound 34] | D (<0.1) | 
0.028 | 75.89 nm | 94.6% | 6.476 |  |  |  |  | CCCCCCCCCCCOC(=O)CCCCCN(CCCCCC(=O)OCC(CCCCCCCC)CCCCCCCC)CCN(CCO)C1CCC1 [Compound 81] | A (≥2) | 
0.067 | 74.68 nm | 90.7% | 6.364 |  |  |  |  | CCCCCCCCC(CCCCCC)COC(=O)CCCCCN(CCCCCC(=O)OCC(CCCCCC)CCCCCCCC)CCN(CCCC)C1CCC(O)CC1 (centres unmarked) [Compound 58] | A (≥2) | 
0.028 | 84.53 nm | 94.6% | 6.7 |  |  |  |  | CCCCCCCCC(CCCCCC)COC(=O)CCCCCN(CCCCCC(=O)OCC(CCCCCC)CCCCCCCC)CCN(CCO)C1CCOCC1 (centres unmarked) [Compound 89] | A (≥2) | 
0.077 | 75.26 nm | 100.6% | 7.652 |  |  |  |  | CCCCCCCCC(CCCCCC)COC(=O)CCCCCN(CCCCCC(=O)OCC(CCCCCC)CCCCCCCC)CCN(CCO)C1CCC(O)CC1 (centres unmarked) [Compound 21] | D (<0.1) | 
